Test results reported in patent US9522903B2 (priority 2010, dated 2016).

How the values were obtained:
[1] = tested on: rat vascular ring system precontracted with norepinephrine
[2] = tested on: rat model of myocardial ischemia-reperfusion injury (MIRI); settings: in vivo
[3] = mouse, in vivo, ip
[4] = tested on: murine model of renal ischemia-reperfusion injury; design: species or system mice; settings: mouse, in vivo

2-cyano-1-(1-hydroxy-2,2,5,5-tetramethylpyrrolidin-3-yl)-3-(pyridin-3-yl)guanidine [compound 2]
ED50 (ex vivo vasodilator potency) compared to pinacidil [1]: one log greater than that of pinacidil | histologic features of injury (myocyte necrosis, edema, neutrophil infiltration) [2]: profoundly attenuated virtually all histologic features of injury | mean arterial pressure (systemic hypotension) [2]: did not produce systemic hypotension | myocardial myeloperoxidase (MPO) [2]: significantly reduced | tissue infarction (infarct size) [2]: significantly reduced | effect on blood glucose levels compared with saline vehicle group [3]: did not exhibit any significant effect | elevation in plasma blood urea nitrogen (BUN) [4]: profoundly attenuated | elevation in plasma creatinine [4]: profoundly attenuated | elevation in renal myeloperoxidase (MPO) [4]: profoundly attenuated | protection against severe renal tubular necrosis (histologic studies) [4]: near total protection
